Laboratory results: PubChem BioAssay AID330 (DTP/NCI, 2004)
“And” between values parts separate entries of the source, which are not always exact repeats. Equal entries are not always repeated. Toxic doses and inconclusive results are not listed.

Tested on: P388 leukemia ip, CD2F1 mice, survival T/C
Experiment: NCI In Vivo Anticancer Drug Screen. Data for tumor model P388 Leukemia (intraperitoneal) in CD2F1 (CDF1) mice
Details: endpoint: median survival time, higher = longer survival
Outline: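 Mice carrying the transplanted tumor received test compound or vehicle. Survival was recorded in each group, and the value is the treated-group measurement divided by that of the vehicle-treated control group.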

[1] = dose: 25.0 mg/kg/injection, schedule: Q01DX009 (ip), vehicle: saline
[2] = dose: 50.0 mg/kg/injection, schedule: Q01DX009 (ip), vehicle: saline
[3] = dose: 25.0 mg/kg/injection, schedule: Q01DX009 (ip), vehicle: saline with Tween-80
[4] = dose: 50.0 mg/kg/injection, schedule: Q01DX009 (ip), vehicle: saline with Tween-80
[5] = dose: 100.0 mg/kg/injection, schedule: Q01DX009 (ip), vehicle: saline with Tween-80
[6] = dose: 12.5 mg/kg/injection, schedule: Q01DX009 (ip), vehicle: saline with Tween-80
[7] = dose: 200.0 mg/kg/injection, schedule: Q01DX009 (ip), vehicle: saline with Tween-80
[8] = dose: 400.0 mg/kg/injection, schedule: Q01DX009 (ip), vehicle: saline with Tween-80
[9] = dose: 50.0 mg/kg/injection, schedule: Q01DX005 (ip), vehicle: saline with Tween-80
[10] = dose: 100.0 mg/kg/injection, schedule: Q01DX005 (ip), vehicle: saline with Tween-80
[11] = dose: 200.0 mg/kg/injection, schedule: Q01DX005 (ip), vehicle: saline with Tween-80
[12] = dose: 50.0 mg/kg/injection, schedule: Q01DX005 (ip), vehicle: saline
[13] = dose: 100.0 mg/kg/injection, schedule: Q01DX005 (ip), vehicle: saline
[14] = dose: 200.0 mg/kg/injection, schedule: Q01DX005 (ip), vehicle: saline

Nc1n[n+](-c2ccc(Cl)cc2)no1
T/C (dose: 3.13 mg/kg/injection, schedule: Q01DX009 (ip), vehicle: water): 108 % of control | T/C (dose: 6.25 mg/kg/injection, schedule: Q01DX009 (ip), vehicle: water): 102 % of control and 124 % of control | T/C (dose: 12.5 mg/kg/injection, schedule: Q01DX009 (ip), vehicle: water): 124 % of control | T/C (dose: 25.0 mg/kg/injection, schedule: Q01DX009 (ip), vehicle: water): 155 % of control

CCC(=O)NC
T/C [1]: 97 % of control | T/C [2]: 97 % of control | T/C (dose: 100.0 mg/kg/injection, schedule: Q01DX009 (ip), vehicle: saline): 106 % of control | T/C (dose: 200.0 mg/kg/injection, schedule: Q01DX009 (ip), vehicle: saline): 107 % of control

C=C(C)[C@@H]1CCc2c(O)c(O)c(=O)cc(C)c2C1
T/C (dose: 1.75 mg/kg/injection, schedule: Q01DX009 (ip), vehicle: saline): 108 % of control | T/C (dose: 3.5 mg/kg/injection, schedule: Q01DX009 (ip), vehicle: saline): 112 % of control and 113 % of control | T/C (dose: 7.0 mg/kg/injection, schedule: Q01DX009 (ip), vehicle: saline): 101 % of control and 121 % of control | T/C (dose: 14.0 mg/kg/injection, schedule: Q01DX009 (ip), vehicle: saline): 110 % of control | T/C (dose: 28.0 mg/kg/injection, schedule: Q01DX009 (ip), vehicle: saline): 121 % of control | T/C (dose: 56.0 mg/kg/injection, schedule: Q01DX009 (ip), vehicle: saline): 119 % of control

NC(=S)N/N=C/c1ccc(OC(=O)COc2ccccc2)cn1
T/C [3]: 171 % of control | T/C [4]: 205 % of control | T/C [5]: 205 % of control

CCCCCCC(/C=C/c1ccc(Cl)c(Cl)c1)=N\Nc1ccc(Cl)cc1Cl
T/C [6]: 94 % of control | T/C [3]: 94 % of control | T/C [5]: 88 % of control | T/C [7]: 87 % of control

C[N+]1=P(C)(C)N=P(C)(C)[N+](C)=P(C)(C)N=P1(C)C
T/C (dose: 12.5 mg/kg/injection, schedule: Q01DX009 (ip), vehicle: saline): 95 % of control | T/C [1]: 95 % of control | T/C [2]: 116 % of control and 95 % of control

COC1/C=C/OC2(C)Oc3c(C)c(O)c4c(c3C2=O)C(=O)c2cnc(nc2C4=O)/C(C)=C\C=C\C(C)C(O)C(C)C(O)C(C)C(OC(C)=O)C1C (configuration not stated)
T/C (dose: 25.0 mg/kg/injection, schedule: Q01DX009 (ip), vehicle: other): 93 % of control | T/C (dose: 50.0 mg/kg/injection, schedule: Q01DX009 (ip), vehicle: other): 107 % of control | T/C (dose: 100.0 mg/kg/injection, schedule: Q01DX009 (ip), vehicle: other): 116 % of control

Nc1nc(N)c2cc(CCc3ccccc3)ccc2n1
T/C (dose: 6.25 mg/kg/injection, schedule: Q01DX009 (ip), vehicle: saline with Tween-80): 95 % of control | T/C [6]: 109 % of control | T/C [3]: 90 % of control | T/C (dose: 50.0 mg/kg/injection, schedule: Q04DX003 (ip), vehicle: saline with Tween-80): 104 % of control | T/C (dose: 100.0 mg/kg/injection, schedule: Q04DX003 (ip), vehicle: saline with Tween-80): 109 % of control

N=C(N)SCC[n+]1cccc2cccc(O)c21
T/C (dose: 100.0 mg/kg/injection, schedule: Q04DX002 (ip), vehicle: saline): 98 % of control | T/C (dose: 200.0 mg/kg/injection, schedule: Q04DX002 (ip), vehicle: saline): 100 % of control

ClC(Cl)(Cl)C(N1CCN(c2ccccc2)CC1)N1CCN(c2ccccc2)CC1
T/C [5]: 101 % of control | T/C [7]: 101 % of control | T/C [8]: 106 % of control | T/C (dose: 600.0 mg/kg/injection, schedule: Q01DX009 (ip), vehicle: saline with Tween-80): 100 % of control

C[S+](C)c1ccccc1NC(C)(C)C
T/C (dose: 6.25 mg/kg/injection, schedule: Q01DX009 (ip), vehicle: saline + alcohol): 99 % of control | T/C (dose: 12.5 mg/kg/injection, schedule: Q01DX009 (ip), vehicle: saline + alcohol): 100 % of control | T/C (dose: 25.0 mg/kg/injection, schedule: Q01DX009 (ip), vehicle: saline + alcohol): 96 % of control | T/C [1]: 101 % of control

CC(=O)c1cc(-c2ccc3ccccc3c2)nc2ccccc12
T/C [9]: 96 % of control | T/C [10]: 94 % of control | T/C [11]: 100 % of control

COC(=O)c1ncn(CC#N)n1
T/C [12]: 110 % of control | T/C [13]: 112 % of control | T/C [14]: 105 % of control

CCOC(=O)c1oc2ccccc2c1CN(CCO)CCO
T/C [9]: 98 % of control | T/C [10]: 100 % of control | T/C [11]: 105 % of control

O=C(c1cccs1)C1NO[N+]([O-])=C1c1cccs1 (configuration not stated)
T/C (dose: 6.25 mg/kg/injection, schedule: Q01DX005 (ip), vehicle: saline with Tween-80): 100 % of control | T/C (dose: 12.5 mg/kg/injection, schedule: Q01DX005 (ip), vehicle: saline with Tween-80): 106 % of control | T/C (dose: 25.0 mg/kg/injection, schedule: Q01DX005 (ip), vehicle: saline with Tween-80): 115 % of control

NC(=S)N/N=C/c1ccc2c(c1)OCO2
T/C [4]: 100 % of control | T/C [5]: 100 % of control

COc1ccc(Cc2cc3c(cc2O)OCO3)cc1
T/C (dose: 2.5 mg/kg/injection, schedule: Q01DX009 (ip), vehicle: saline with Tween-80): 99 % of control | T/C (dose: 5.0 mg/kg/injection, schedule: Q01DX009 (ip), vehicle: saline with Tween-80): 101 % of control | T/C (dose: 10.0 mg/kg/injection, schedule: Q01DX009 (ip), vehicle: saline with Tween-80): 101 % of control | T/C (dose: 15.0 mg/kg/injection, schedule: Q01DX005 (ip), vehicle: saline with Tween-80): 107 % of control | T/C (dose: 31.0 mg/kg/injection, schedule: Q01DX005 (ip), vehicle: saline with Tween-80): 102 % of control | T/C (dose: 62.5 mg/kg/injection, schedule: Q01DX005 (ip), vehicle: saline with Tween-80): 106 % of control | T/C (dose: 125.0 mg/kg/injection, schedule: Q01DX005 (ip), vehicle: saline with Tween-80): 100 % of control | T/C (dose: 250.0 mg/kg/injection, schedule: Q01DX005 (ip), vehicle: saline with Tween-80): 102 % of control

O=C(CNC(=O)OCc1ccccc1)Oc1ccccc1[N+](=O)[O-]
T/C [4]: 94 % of control | T/C [5]: 100 % of control | T/C [7]: 111 % of control

O=c1c2ccccc2c(=O)n2n1C1CCC2C1
T/C (dose: 50.0 mg/kg/injection, schedule: Q01DX005 (ip), vehicle: Klucel (hydroxypropylcellulose) (HPC)): 96 % of control | T/C (dose: 100.0 mg/kg/injection, schedule: Q01DX005 (ip), vehicle: Klucel (hydroxypropylcellulose) (HPC)): 110 % of control | T/C (dose: 200.0 mg/kg/injection, schedule: Q01DX005 (ip), vehicle: Klucel (hydroxypropylcellulose) (HPC)): 100 % of control

Cc1ccc(N=Cc2ccc(C=Nc3ccc(C)cc3C)cc2)c(C)c1
T/C (dose: 50.0 mg/kg/injection, schedule: Q01DX009 (ip), vehicle: Klucel (hydroxypropylcellulose) (HPC)): 92 % of control | T/C (dose: 100.0 mg/kg/injection, schedule: Q01DX009 (ip), vehicle: Klucel (hydroxypropylcellulose) (HPC)): 91 % of control | T/C (dose: 200.0 mg/kg/injection, schedule: Q01DX009 (ip), vehicle: Klucel (hydroxypropylcellulose) (HPC)): 97 % of control

COc1ccc(OC)c(NC(=O)Oc2cccc(NC(C)=O)c2)c1
T/C [3]: 105 % of control | T/C [4]: 106 % of control | T/C [5]: 104 % of control | T/C [7]: 107 % of control | T/C [8]: 104 % of control

C=C(C)C(=O)OCC1CO1 (configuration not stated)
T/C (dose: 50.0 mg/kg/injection, schedule: Q01DX009 (ip), vehicle: water): 100 % of control | T/C (dose: 100.0 mg/kg/injection, schedule: Q01DX009 (ip), vehicle: water): 108 % of control | T/C (dose: 200.0 mg/kg/injection, schedule: Q01DX009 (ip), vehicle: water): 120 % of control

CCOC(=O)Cc1cc(O)c(C(=O)OCC)c(O)c1C(=O)OCC
T/C (dose: 100.0 mg/kg/injection, schedule: Q01DX001 (ip), vehicle: saline with Tween-80): 105 % of control | T/C (dose: 200.0 mg/kg/injection, schedule: Q01DX001 (ip), vehicle: saline with Tween-80): 105 % of control | T/C (dose: 400.0 mg/kg/injection, schedule: Q01DX001 (ip), vehicle: saline with Tween-80): 99 % of control

CC1(C)OC2(C)CCC1C1C2N1C(=O)NCCCl (configuration not stated)
T/C [12]: 108 % of control | T/C [13]: 100 % of control | T/C [14]: 89 % of control
